Measurements as given in patent US7683095B2, “Compositions and methods of treating, reducing and preventing cardiovascular diseases and disorders with polymethoxyflavones” (The United States of America as represented by the …, priority 1998, dated 2010).
Converted amounts (≈) assume the structure as drawn.

Test system: apolipoprotein B (apoB) production
Assay: apo B secretion into medium of HepG2 cells, competitive ELISA
Format: cell-based, human
Conditions: for % apo B reduction / Apo B μg/mL medium / % apo B in medium: HepG2, 24 hours; for IC50: Homo sapiens, apo B in medium of HepG2 cells, 24 hours incubation, read-out: IC50 concentrations; for % apo B in medium: percent of control; for inhibitory effect on apo-B production: result in words, these results along with other preliminary studies, alone or in combination
Procedure: Limocitrin derivatives, quercetin derivatives, naturally occurring polymethoxyflavones, and tocotrienols were tested for cholesterol lowering activity in HepG2 cells. Confluent HepG2 cells were preincubated for 24 hours in a lipoprotein-free medium (Minimum Essential Medium (MEM), Life Technologies, Burlington, Canada) in which the fetal bovine serum (Life Technologies, Burlington, Canada) was replaced by bovine serum albumin (BSA, Life Technologies, Burlington, Canada) to inhibit cell proliferation and to stimulate synthesis of cholesterol-containing lipoproteins. Cells were subsequently incubated for another 24 hours in the same medium in the presence or absence of limocitrin derivatives, quercetin derivatives, naturally occurring polymethoxyflavones, or tocotrienols (See Table 1) at the highest concentrations sustaining about 100%±10% cell viability, as determined by the 3-(4,5-dimethylthiazol-2-yl)-2,5-diphenyltetrazolium bromide (MTT) viability assay. The test compounds were added to the cell culture medium after solubilization in dimethyl sulfoxide (DMSO) and filter sterilized. […] For each experiment, equal concentrations of solvent were added to all treatment media and to a control medium (without tested compounds). At the end of the incubation, culture media were collected and the concentration of the LDL structural protein, apo-B, was measured by ELISA. The competitive Elisa assay kit for determination of human apo B (Ortho Diagostics, LaJolla, Calif.) measures medium apo B concentrations within the range 0.4-0.031 μg/mL. In this assay, microtiter 96-well plates are coated with monoclonal antibody against human apo B, which binds apo B epitope from human LDL (standard curve, control sera with high and low content of human apo B) or from LDL-like lipoproteins secreted by HepG2 cells (tested media, usually 2× diluted with Ca^2+- and […]-free phosphate buffered saline (PBS)). After the exposure, a fraction of antibody is blocked and the remaining amount is captured by a subsequent incubation with conjugate containing a secondary antibody (against anti-human apo B) coupled with horseradish peroxidase. The following incubation with horseradish peroxidase substrate, o-phenylenediamine, produces a yellow color change proportional to the amount of apo B present, and the optical density of samples is measured at 490-492 nm against the blank PBS/conjugate wells. To determine whether evaluated compounds cross-react with Elisa assay, in separate study, various doses of compounds were tested in presence of cell-free culture media.
Amount of lipoprotein-associated apo-B in the media net apo-B secretion) was determined as described above, and calculated per mg cell protein. Net apo B3 secretion was also expressed as percent of control (amount of apo B in medium from cells incubated without tested compounds).

[1] = concentration 6.25 μg/mL medium
[2] = concentration 12.5 μg/mL medium
[3] = concentration 25.0 μg/mL medium
[4] = concentration 50.0 μg/mL medium
[5] = concentration 3.12 μg/mL medium

SMILES | % apo B reduction [1] [%] | Apo B μg/mL medium [1] [μg/mL medium] | % apo B reduction [2] [%] | Apo B μg/mL medium [2] [μg/mL medium] | % apo B reduction [3] [%] | Apo B μg/mL medium [3] [μg/mL medium] | % apo B in medium [1] [%] | % apo B in medium [2] [%] | % apo B in medium [3] [%] | inhibitory effect on apo-B production | other results
COc1ccc(-c2cc(=O)c3c(OC)c(OC)c(OC)cc3o2)cc1OC [Sinensetin, 5,6,7,3′,4′-pentamethoxyflavone] | 25 | 0.70 ± 0.13 | 42 | 0.54 ± 0.04 | 62 | 0.35 ± 0.04 | 75 ± 14 | 58 ± 4 | 38 ± 5 | inhibitory effects | % apo B reduction [4]: 72%; Apo B μg/mL medium [4]: 0.26 ± 0.02 μg/mL medium; IC50: 17.8 µg/mL (≈ 47.8 µM); % apo B in medium [4]: 28 ± 5%
COc1cc(O)c2c(=O)c(OC)c(-c3ccc(OC)c(OC)c3)oc2c1 [quercetin tetramethylether, 5-hydroxy-3,7,3′,4′-tetramethoxyflavone] |  |  |  |  |  |  |  |  |  | inhibitory effects | 
COc1ccc(-c2cc(=O)c3c(O)c(OC)c(OC)cc3o2)cc1OC [5-desmethylsinensetin, 5-hydroxy-6,7,3′,4′-tetramethoxyflavone] |  |  |  |  | 27 | 0.84 ± 0.21 |  |  | 73 ± 18 | inhibitory effects | % apo B reduction [4]: 64%; Apo B μg/mL medium [4]: 0.41 ± 0.20 μg/mL medium; % apo B in medium [4]: 36 ± 1%
COc1ccc(-c2cc(=O)c3c(O)c(OC)c(OC)c(OC)c3o2)cc1OC [5-desmethylnobiletin, 5-hydroxy-6,7,8,3′,4′-pentamethoxyflavone] |  |  |  |  |  |  |  |  |  | inhibitory effects | 
COc1ccc(-c2oc3c(OC)c(OC)cc(OC(C)=O)c3c(=O)c2OC)cc1OC [limocitrin-3,7,4′-trimethylether-5-acetate] |  |  |  |  |  |  |  |  |  | inhibitory effects | 
COc1cc(OC)c2c(=O)c(OC(C)=O)c(-c3ccc(OC)c(OC)c3)oc2c1 [quercetin-5,7,3′,4′-tetramethylether-3-acetate] |  |  |  |  |  |  |  |  |  | inhibitory effects | 
COc1ccc(-c2oc3c(OC)c(OC)c(OC)c(OC)c3c(=O)c2OC)cc1OC [Heptamethoxyflavone, 3,5,6,7,8,3′,4′-heptamethoxyflavone] | 45 | 0.138 ± 0.02 | 68 | 0.080 ± 0.02 | 81 | 0.048 ± 0.01 | 55 ± 5 | 32 ± 9 | 19 ± 3 | inhibitory effects | % apo B reduction [4]: 82%; Apo B μg/mL medium [4]: 0.045 ± 0.01 μg/mL medium; IC50: 7.8 µg/mL (≈ 18 µM); % apo B in medium [4]: 18 ± 2%
COc1ccc(-c2oc3c(OC)c(OC)cc(OC)c3c(=O)c2OC)cc1OC [limocitrin-3,5,7,4′-tetramethylether, 3,5,7,8,3′,4′-hexamethoxyflavone] |  |  |  |  |  |  |  |  |  | inhibitory effects | 
COc1c(-c2ccc(OCc3ccccc3)c(OCc3ccccc3)c2)oc2cc(OCc3ccccc3)cc(OC)c2c1=O [quercetin-3,5-dimethylether-7,3′,4′-tribenzyl ether] |  |  |  |  |  |  |  |  |  | inhibitory effects | 
COc1ccc(-c2cc(=O)c3c(OC)cc(OC)c(OC)c3o2)cc1 [tetra-O-methylisoscutellarein, 5,7,8,4′-tetramethoxyflavone] |  |  |  |  |  |  |  |  |  | inhibitory effects | 
COc1ccc(-c2cc(=O)c3c(OC)c(OC)c(OC)c(OC)c3o2)cc1 [tangeretin, 5,6,7,8,4′-pentamethoxyflavone] | 78 | 0.055 ± 0.01 | 81 | 0.048 ± 0.01 | 86 | 0.035 ± 0.01 | 22 ± 2 | 19 ± 2 | 14 ± 1 | inhibitory effects | % apo B reduction [5]: 68%; Apo B μg/mL medium [5]: 0.080 ± 0.02 μg/mL medium; IC50: 2.5 µg/mL (≈ 6.71 µM); % apo B in medium [5]: 32 ± 8%
COc1ccc(-c2cc(=O)c3c(OC)c(OC)c(OC)cc3o2)cc1 [Tetra-O-methyl-Scutellarein] | 29 | 0.305 ± 0.03 | 41 | 0.255 ± 0.06 |  |  | 71 ± 7 | 59 ± 13 |  |  | 
COc1cc(OC)c2c(=O)c(O)c(-c3ccc(OC)c(OC)c3)oc2c1 [quercetin-5,7,3′,4′-tetramethylether, 3-hydroxy-5,7,3′,4′-tetramethoxyflavone] |  |  |  |  |  |  |  |  |  | inhibitory effects | 
CCOc1ccc(-c2oc3c(OC)c(OCC)cc(OCC)c3c(=O)c2OCC)cc1OC [limocitrin-3,5,7,4′-tetraethylether] |  |  |  |  |  |  |  |  |  | inhibitory effects | 
COc1ccc(-c2cc(=O)c3c(OC)c(OC)c(OC)c(OC)c3o2)cc1OC [nobiletin, 5,6,7,8,3′,4′-hexamethoxyflavone] | 33 | 0.37 ± 0.09 | 68 | 0.175 ± 0.03 | 82 | 0.10 ± 0.01 | 67 ± 16 | 32 ± 6 | 18 ± 1 | inhibitory effects | % apo B reduction [4]: 83%; Apo B μg/mL medium [4]: 0.095 ± 0.01 μg/mL medium; IC50: 4.9 µg/mL (≈ 12.2 µM); % apo B in medium [4]: 17 ± 1%
COc1ccc(-c2oc3c(OC)c(OC)cc(O)c3c(=O)c2OC)cc1OC [limocitrin-3,7,4′-trimethylether, 5-hydroxy-3,7,8,3′,4′-pentamethoxyflavone] |  |  |  |  |  |  |  |  |  | inhibitory effects | 
